± gives the expanded uncertainty stated by the source.
Tests used:
[1] = refractive index (Na D-line) (dimensionless); conditions: 101.33 kPa, Liquid, Standard Abbe refractometry
[2] = for speed of sound / mass density / viscosity: 101.33 kPa, Liquid; for speed of sound: VIBRATING TUBE DENSIMETER; for mass density: Vibrating tube method; for surface tension liquid-gas: Ring tensiometer; for viscosity: Capillary tube (Ostwald / Ubbelohde) method

CCCCn1cc[n+](C)c1.F[P-](F)(F)(F)(F)F [1-butyl-3-methylimidazolium hexafluorophosphate]
Conditions	mass density, [2] [kg/m3]	refractive index, [1]	speed of sound, [2] [m/s]	surface tension liquid-gas, [2] [mN/m]	viscosity, [2] [mPa·s]
278.15 K	1384.36 ± 10	–	1492.5 ± 5	–	–
283.15 K	1380.1 ± 10	1.41332 ± 0.0011	1480.8 ± 5	–	–
288.15 K	1375.83 ± 10	1.41198 ± 0.0011	1468.2 ± 5	43.7 ± 1.2	–
293.15 K	1371.56 ± 10	1.41069 ± 0.0011	1455.3 ± 5	43.2 ± 1.2	340.49 ± 14
298.15 K	1367.3 ± 10	1.40937 ± 0.0011	1442.8 ± 5	42.9 ± 1.2	247.06 ± 9.1
303.15 K	1363.03 ± 10	1.40808 ± 0.0011	1430.6 ± 5	42.6 ± 1.2	184.23 ± 6.2
308.15 K	1358.76 ± 10	1.40674 ± 0.0011	1419 ± 5	42.2 ± 1.2	140.57 ± 4.3
313.15 K	1354.53 ± 10	1.40543 ± 0.0011	1406.4 ± 5	41.8 ± 1.2	108.9 ± 3.1
318.15 K	1350.32 ± 9.9	1.40411 ± 0.0011	1394.9 ± 5	–	85.9 ± 2.3
323.15 K	1346.12 ± 9.9	1.40282 ± 0.0011	1383.5 ± 5	–	68.79 ± 1.8
328.15 K	1341.97 ± 9.8	1.40151 ± 0.0011	1372.2 ± 5	–	–
333.15 K	1337.83 ± 9.8	1.40024 ± 0.0011	1360.9 ± 5	–	–
338.15 K	1333.7 ± 9.7	1.39896 ± 0.0011	1349.2 ± 5	–	–
343.15 K	1329.61 ± 9.7	1.39771 ± 0.0011	1337.2 ± 5	–	–

CCCCCCn1cc[n+](C)c1.F[P-](F)(F)(F)(F)F [1-hexyl-3-methylimidazolium hexafluorophosphate]
[2]
Conditions	speed of sound [m/s]	surface tension liquid-gas [mN/m]	viscosity [mPa·s]
278.15 K	1490.7 ± 5	–	–
283.15 K	1470.8 ± 5	–	–
288.15 K	1453.6 ± 5	–	–
293.15 K	1438.3 ± 5	37.5 ± 1.1	676.82 ± 34
298.15 K	1424.2 ± 5	37.1 ± 1.1	475.66 ± 22
303.15 K	1411 ± 5	36.8 ± 1.1	342.52 ± 14
308.15 K	1398.5 ± 5	36.5 ± 1	252.69 ± 9.4
313.15 K	1386.4 ± 5	36.1 ± 1	187.36 ± 6.3
318.15 K	1374.6 ± 5	–	143.58 ± 4.4
323.15 K	1363 ± 5	–	111.9 ± 3.2
328.15 K	1351.7 ± 5	–	–
333.15 K	1340.3 ± 5	–	–
338.15 K	1329.3 ± 5	–	–
343.15 K	1318.4 ± 5	–	–

CCCCCCCC[n+]1ccn(C)c1.F[P-](F)(F)(F)(F)F [1-octyl-3-methylimidazolium hexafluorophosphate]
Conditions	mass density, [2] [kg/m3]	refractive index, [1]	speed of sound, [2] [m/s]	surface tension liquid-gas, [2] [mN/m]	viscosity, [2] [mPa·s]
278.15 K	1251.83 ± 8.5	–	1481.6 ± 5	–	–
283.15 K	1247.65 ± 8.5	1.42716 ± 0.0011	1460 ± 5	–	–
288.15 K	1243.43 ± 8.4	1.42578 ± 0.0011	1440.8 ± 5	–	–
293.15 K	1239.57 ± 8.4	1.4244 ± 0.0011	1423.7 ± 5	36.5 ± 1	999.08 ± 56
298.15 K	1235.72 ± 8.3	1.42302 ± 0.0011	1407.8 ± 5	36.2 ± 1	690.6 ± 35
303.15 K	1231.88 ± 8.3	1.42165 ± 0.0011	1393 ± 5	35.9 ± 1	489.02 ± 22
308.15 K	1228.04 ± 8.2	1.42028 ± 0.0011	1378.9 ± 5	35.6 ± 1	355.31 ± 15
313.15 K	1224.21 ± 8.2	1.41887 ± 0.0011	1365.8 ± 5	35.2 ± 1	263.23 ± 9.9
318.15 K	1220.37 ± 8.1	1.41749 ± 0.0011	1353.2 ± 5	–	196.23 ± 6.7
323.15 K	1216.62 ± 8.1	1.4161 ± 0.0011	1341 ± 5	–	150.57 ± 4.7
328.15 K	1212.92 ± 8	1.41471 ± 0.0011	1329.1 ± 5	–	–
333.15 K	1209.21 ± 8	1.41334 ± 0.0011	1317.5 ± 5	–	–
338.15 K	1205.51 ± 7.9	1.41195 ± 0.0011	1305.8 ± 5	–	–
343.15 K	1201.82 ± 7.9	1.41056 ± 0.0011	1294.6 ± 5	–	–
